Assay results as given in patent publication US20090264306A1, “DNA METHYLATION BIOMARKERS IN LYMPHOID AND HEMATOPOIETIC MALIGNANCIES” (Curators of the University of Missouri, priority 2005, published 2009).

System: NHL lines RL, Daudi, DB, Raji, Granta 519 and Mec-1
Assay: Reactivation of methylated genes by DAC and TSA in NHL cell lines, real time RT-PCR
Type: cell-based, Human
Excerpt: Cell Lines and Drug Treatments. Human NHL lines RL, Daudi, DB, Raji, Granta 519 and Mec-1 were maintained in RPMI 1640 media. The germinal center related cell line RL is derived from a patient with FL and the t(14,18) gene rearrangement (12), and Daudi and Raji cells are of germinal center derivation. The postgerminal center cell line DB is a DLBCL cell line that has undergone isotype switching (12). […] Granta 519 is an MCL cell line over-expressing cyclin D1 (13) and Mec-1 is a transformed B-CLL/SLL cell line (14). For gene reactivation experiments, cells were cultured in the presence of vehicle (PBS) or DAC (1.0 μM; medium changed every 24 h). After 4 days, cells were either harvested or further treated with TSA (1.0 μM) for 12 h and then harvested. Some cells were also treated with TSA alone for 12 h before harvest. Genomic DNA or total RNA was isolated using Qiagen™ kits (Qiagen, Valencia Calif.) and used for methylation and gene expression analysis, respectively.
Real-time RT-PCR. Total RNA (2 μg) was pre-treated with DNase I to remove potential DNA contaminants and reverse-transcribed in the presence of SuperScript III™ reverse transcriptase (Invitrogen, Carlsbad, Calif.). The generated cDNA was used for PCR amplification with the system described above. The Taqman™ probe and primer sets for real time PCR were purchased from Applied Biosystems (Foster City, Calif.). Separate parallel reactions were run for GAPDH cDNA using a series of diluted cDNA samples as templates to generate standardization curves. The mRNA levels were derived from the standardization curves and expressed as relative changes after normalization to those of GAPDH.

[1] = NHL cell lines, DAC 1.0 μM 4 days, TSA 1.0 μM 12 h, normalized to GAPDH, combination effect in most of the cell lines

Structure (SMILES): Nc1ncn([C@H]2C[C@H](O)[C@@H](CO)O2)c(=O)n1 [DAC, 5-aza-2-deoxycytidine]
- CCND1 expression (Granta 519 cell line, DAC alone): down regulated
- CYP27B1 gene expression after treatment [1]: weakly to moderately up-regulated
- RARβ2 gene expression after treatment [1]: weakly to moderately up-regulated
